The results in this text go back to patent US4551477A, “Esters of alkoxy-acylderivatives of carnitine and pharmaceutical compositions containing same” (Sigma-Tau Industrie Farmaceutiche Riunite S.P.A., priority 1974, dated 1985).

In general, LD50 refers to the dose expected to kill half of the subjects tested.

The subject of data set [1] is mice. Kind of data set: Adrenaline-antagonizing effect in mice. The data set is classed as in vivo, male Albino Swiss mice. The note with it: Mus musculus, ip, 30 min before adrenaline, mortality checked for 36 hours, read-out: Antiadrenaline activity, % mortality reduction; for responders at 50 mg/kg: dose 50 mg kg^-1 i.p.; for responders at 300 mg/kg: dose 300 mg kg^-1 i.p.; for responders at 70 mg/kg: dose 70 mg kg^-1 i.p.; for responders at 100 mg/kg: dose 100 mg kg^-1 i.p. As for the experimental part:
(d) Adrenaline-antagonizing effect
Groups of ten male Albino Swiss mice, weighing 12-22 g, were intraperitoneally administered either with the esters of the present invention or with saline (control) and, after 30 minutes, with adrenaline (treated) at a dose capable of bringing about death to 100% of the control animals due to ventricular fibrillation and cardiac lesions ensuing from increase in frequency, pressure and oxygen uptake from the myocardium.
Mortality was checked for 36 hours and the effect of the compounds expressed as percentage of surviving animals, is shown in the Table.

In the next data set the test system is rabbit isolated heart. Kind of data set: Inotropic effect on rabbit isolated heart (Langendorff) after anoxia. The note with it: Oryctolagus cuniculus, 10 min, dose 10^-5 gl^-1, 10 minutes after interruption of the anoxic period, increase against controls. Here is the method: Rabbit hearts isolated by the Langendorff method were perfused with oxygenized Ringer solution at 38.2° C. The isometric contractions, electrogardiogram and coronary flow were recorded using a "Battaglia-Rangoni" polygraph. By removing the oxygen from the perfusion fluid, metabolic damage was induced in the cardiac muscle, up to an 80% reduction in the cardiac contractile force.
Under these conditions of prolonged anoxia the aerobic glycolysis of the myocardium is slowed down, accompanied by the storage of acid catabolites due to both the accumulation of pyruvic acid and its conversion to lactic acid which cannot be utilized because of the depression of pyridine enzymes, such as LDH (lactodehydrogenase). This has repercussions on the anaerobic glycolysis affecting an ever increasing number of enzymes, accompanied by a progressive and increasingly critical exhaustion of the myocardium. Thus a whole series of cardiac muscle fatigue levels occurs which can be observed by the behavior of the examined parameters, namely the contractile force, coronary flow, heart rate and cardiac rhythm. As soon as the contractile force was reduced by 80%, the perfusion fluid was once again oxygenized either without adding other compounds (controls) or with the addition of the compounds under examination.
In the Table there are shown the percentage value of increase against the controls.

Data set [2] in a line: Acute toxicity (LD50) in mice. The note with it: mouse, in vivo, ip. The text has this:
(a) Acute toxicity (LD50)
Acute toxicity was investigated by using the method disclosed by Weil C. S. in "Tables for convenient calculation of median-effective dose (LD50 or ED50) and instructions in their use", Biometrics, 249-253, 1952.
The tolerance of the compounds under examination was investigated in mice after administration by the intraperitoneal or oral route. […] (see the Table).

Data set [3] has as its system mice. Kind of data set: Antiarrhythmic (antifibrillatory) effect, aconitine-induced arrhythmia in mice. It counts as in vivo. The note with it: Mus musculus, iv, read-out: Antifibrillatory activity, % reduction. Here is the method:
(c) Antiarrhythmic effect
In order to evaluate the antiarrhythmic activity of the carnitine derivatives of this invention studied with in vivo tests in addition to and in comparison with the currently employed in vitro tests, the method disclosed by Nwangwu et al. (Arch. Int. Pharmacodyn., 1977, 229, 219) was used.
According to this method an aconitine solution is injected into the caudal vein of mice and the onset time of arrhythmia and tachycardia after 2 to 60 minutes from administration of the compounds under examination is recorded.
The antiarrhythmic activity calculated from the increase in the latency time of the onset of the arrhythmias of the treated animals in comparison with the controls, is illustrated in the Table.

`CCCOC(=O)CC(C[N+](C)(C)C)OC(=O)COC` (centres unmarked) [R = methoxyacetyl; R' = propyl]: in the data set with mice [1], the responders at 50 mg/kg is 75%. Also, the activation at 0.01 µg/mL in the data set with rabbit isolated heart stood at 78%. Moreover, the LD50 in data set [2] was 650 mg/kg. For the same compound, the inhibition in vivo at 50 mg/kg with mice [3] amounted to 100%.

Consider `CCOCC(=O)OC(CC(=O)OC)C[N+](C)(C)C` (centres unmarked) [R = ethoxyacetyl; R' = methyl], for which, in the data set on mice [1], the responders at 300 mg/kg was 75%. The activation at 0.01 µg/mL in the data set with rabbit isolated heart is 55%. In data set [2], this compound showed an LD50 of 1100 mg/kg. For the same compound, in the data set with mice [3], the inhibition in vivo at 150 mg/kg came out at 90%.

Turning to `CCOCC(=O)OC(CC(=O)OCC(C)C)C[N+](C)(C)C` (centres unmarked) [R = ethoxyacetyl; R' = isobutyl, ethoxyacetyl carnitine isobutyl ester], the responders at 70 mg/kg in the data set on mice [1] came to 50%. In the data set on rabbit isolated heart, the activation at 0.01 µg/mL was 70%. In addition, the LD50 in data set [2] was determined as 750 mg/kg. Also, in the data set on mice [3], the inhibition in vivo at 10 mg/kg stood at 70%.

On to `CCCCOC(=O)CC(C[N+](C)(C)C)OC(=O)COC` (centres unmarked) [R = methoxyacetyl; R' = butyl], for which, in the data set on mice [1], the responders at 100 mg/kg was 70%. Moreover, the activation at 0.01 µg/mL in the data set on rabbit isolated heart was found to be 55%. The compound further showed an LD50 in data set [2] of 550 mg/kg. Also, the inhibition in vivo at 40 mg/kg with mice [3] came out at 75%.

As for `CCOC(=O)CC(C[N+](C)(C)C)OC(=O)COC` (centres unmarked) [R = methoxyacetyl; R' = ethyl], in the data set on mice [1], the responders at 70 mg/kg was 70%. This compound registered an activation at 0.01 µg/mL with rabbit isolated heart of 58%. The LD50 in data set [2] was found to be 550 mg/kg. Besides, in the data set on mice [3], the inhibition in vivo at 50 mg/kg was determined as 70%.

Regarding `COC(C)C(=O)OC(CC(=O)OC(C)C)C[N+](C)(C)C` (centres unmarked) [R = 2-methoxypropionyl; R' = isopropyl, 2-methoxy propionyl carnitine isopropyl ester], the responders at 100 mg/kg with mice [1] turned out to be 58%. This compound also registered an activation at 0.01 µg/mL in the data set with rabbit isolated heart of 70%. Moreover, the LD50 in data set [2] was 850 mg/kg. Besides, the inhibition in vivo at 50 mg/kg in the data set with mice [3] was 68%.

As for `CCOCC(=O)OC(CC(=O)OC(C)C)C[N+](C)(C)C` (centres unmarked) [R = ethoxyacetyl; R' = isopropyl], the responders at 100 mg/kg with mice [1] was 60%. In the data set on rabbit isolated heart, this compound came in with an activation at 0.01 µg/mL of 72%. The LD50 in data set [2] worked out at 700 mg/kg. Besides, the inhibition in vivo at 50 mg/kg in the data set on mice [3] was found to be 70%.

In the case of `COCC(=O)OC(CC(=O)OCC(C)C)C[N+](C)(C)C` (centres unmarked) [R = methoxyacetyl; R' = isobutyl, methoxyacetyl carnitine isobutyl ester], in the data set with mice [1], the responders at 300 mg/kg turned out to be 60%. Besides, the activation at 0.01 µg/mL with rabbit isolated heart amounted to 79%. For the same compound, in data set [2], the LD50 turned out to be 690 mg/kg. In the data set on mice [3], the inhibition in vivo at 75 mg/kg amounted to 85%.

Take `CCCOC(=O)CC(C[N+](C)(C)C)OC(=O)COCC` (centres unmarked) [R = ethoxyacetyl; R' = propyl]: in the data set on mice [1], the responders at 100 mg/kg was 75%. In the data set on rabbit isolated heart, this compound returned an activation at 0.01 µg/mL of 49%. The LD50 in data set [2] turned out to be 620 mg/kg. Moreover, the inhibition in vivo at 50 mg/kg in the data set with mice [3] was found to be 75%.

Regarding `COCC(=O)OC(CC(=O)OC)C[N+](C)(C)C` (centres unmarked) [R = methoxyacetyl; R' = methyl], the responders at 450 mg/kg in the data set on mice [1] (dose 450 mg kg^-1 i.p.) is 70%. Further, the activation at 0.01 µg/mL in the data set on rabbit isolated heart turned out to be 72%. Moreover, the LD50 in data set [2] turned out to be 1200 mg/kg. Besides, the inhibition in vivo at 300 mg/kg with mice [3] came to 75%.

Regarding `CCOCC(=O)OC(CC(=O)OCC)C[N+](C)(C)C` (centres unmarked) [R = ethoxyacetyl; R' = ethyl], the responders at 50 mg/kg in the data set on mice [1] turned out to be 50%. The same compound gave an activation at 0.01 µg/mL in the data set with rabbit isolated heart of 68%. In data set [2], this compound came in with an LD50 of 600 mg/kg. Also, the inhibition in vivo at 35 mg/kg with mice [3] is 65%.

`COCC(=O)OC(CC(=O)OC(C)C)C[N+](C)(C)C` (centres unmarked) [R = methoxyacetyl; R' = isopropyl]: the responders at 50 mg/kg in the data set on mice [1] came to 75%. The compound also gave an activation at 0.01 µg/mL in the data set with rabbit isolated heart of 55%. The compound also returned an LD50 in data set [2] of 800 mg/kg. Besides, the inhibition in vivo at 50 mg/kg with mice [3] was 80%.

Turning to `CCCCOC(=O)CC(C[N+](C)(C)C)OC(=O)COCC` (centres unmarked) [R = ethoxyacetyl; R' = butyl], the responders at 100 mg/kg in the data set with mice [1] is 75%. In the data set on rabbit isolated heart, this compound gave an activation at 0.01 µg/mL of 58%. In addition, the LD50 in data set [2] was found to be 600 mg/kg. The inhibition in vivo at 40 mg/kg in the data set on mice [3] amounted to 75%.

`CCOC(C)C(=O)OC(CC(=O)OC(C)C)C[N+](C)(C)C` (centres unmarked) [R = 2-ethoxypropionyl; R' = isopropyl]: the responders at 300 mg/kg with mice [1] came out at 50%. In the data set on rabbit isolated heart, this compound came in with an activation at 0.01 µg/mL of 50%. The LD50 in data set [2] came out at 1200 mg/kg. In addition, the inhibition in vivo at 50 mg/kg in the data set on mice [3] was 70%.
